Results from patent US20240368163A1, “COMPOUNDS AND METHODS FOR MODULATING SPLICING” (REMIX THERAPEUTICS INC., priority 2021, published 2024).

Key:
Assay type in all cases: cell-based, human
HTT [1] = experiment: HiBiT protein abundance assay, HTT; conditions: Homo sapiens, K562, 24 h, Table 13A, modified K562 cells
Method in brief: (§1)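 Luminescent readout from lytic HiBiT/LgBiT complementation reports endogenous tagged protein level in engineered K562 cells. Compounds dosed 24 h, top 10 μM final, 3-fold steps, 10 points. IC50 is the concentration giving 50% of untreated-control abundance, from 4-parameter logistic fit.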

HTT [2] = experiment: Splicing RT-qPCR assay, HTT mRNA canonical junction (CJ) and alternative junction (AJ); conditions: Homo sapiens; for AC50: increase in AJ mRNA
Method in brief: (§2)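 A673 or K562 cells treated 24 h at 37 °C with 11-point 3-fold dilutions, top 10 uM, DMSO ≤0.25%. Lysates read by RT-qPCR for CJ and AJ isoforms, normalized to GAPDH, GUSB or PPIA; ΔΔCt vs DMSO converted to RQ, then percent response.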

MYB [3] = experiment: HiBiT protein abundance assay, MYB; conditions: Homo sapiens, K562, 24 h, Table 13A, modified K562 cells
Method in brief: as §1

Target C [4] = experiment: Splicing RT-qPCR panel, Target C canonical junction (CJ) mRNA; conditions: Homo sapiens, RT-qPCR panel, canonical junction mRNA; compound concentration having 50% response in CJ decrease; read-out: Target C IC50 (decrease in CJ mRNA levels)
Method in brief: as §2

MYB [5] = experiment: Splicing RT-qPCR assay, MYB mRNA canonical junction (CJ) and alternative junction (AJ); conditions: Homo sapiens; for AC50: increase in AJ mRNA
Method in brief: as §2

Target C [6] = experiment: HiBiT protein abundance assay, Target C; conditions: Homo sapiens, K562, 24 h, Table 13A, modified K562 cells
Method in brief: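 Knock-in HiBiT clones, 10000/well; 10-pt 3-fold titration, top 10 μM final; DMSO ≤0.25%; 24 h, 37 °C, 5% CO2. Lytic HiBiT luminescence readout. 4PL fit, IC50 = concentration giving 50% of untreated abundance.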

SMN2 = experiment: Splicing RT-qPCR panel, SMN2 canonical junction (CJ) mRNA; conditions: Homo sapiens, RT-qPCR panel, canonical junction mRNA; compound concentration having 50% response in CJ decrease; read-out: SMN2 IC50 (decrease in CJ mRNA levels)
Method in brief: as §2

[7] = 24 h, decrease in CJ mRNA, A673 or K562 cells, 24 hours treatment, RT-qPCR, read-out: HTT CJ IC50
[8] = 24 h, A673 or K562 cells, 24 hours treatment, RT-qPCR
[9] = RT-qPCR panel, canonical junction mRNA, compound concentration having 50% response in CJ decrease, read-out: HTT IC50 (decrease in CJ mRNA levels)
[10] = 24 h, decrease in CJ mRNA, A673 or K562 cells, 24 hours treatment, RT-qPCR, read-out: MYB CJ IC50
[11] = RT-qPCR panel, canonical junction mRNA, compound concentration having 50% response in CJ decrease, read-out: MYB IC50 (decrease in CJ mRNA levels)

Row | SMILES | IC50 (HTT [1]) [nM] | IC50 (HTT [2]; [7]) [nM] | AC50 (HTT [2]; [8]) [nM] | IC50 (HTT [2]; [9]) [nM] | IC50 (MYB [3]) [nM] | IC50 (Target C [4]) [nM] | IC50 (MYB [5]; [10]) [nM] | AC50 (MYB [5]; [8]) [nM] | IC50 (MYB [5]; [11]) [nM] | IC50 (Target C [6]) [nM] | IC50 (SMN2) [nM]
1 | CCN(c1ccc(-c2ccc(-c3cn[nH]c3)c3cn[nH]c23)nn1)[C@@H]1C[C@H]2CCC[C@@H](C1)N2 [Compound 297] | 100 to 1000 | 100 to 1000 | 100 to 1000 | 100 to 1000 | 100 to 1000 | 100 to 1000 | 100 to 1000 | 100 to 1000 | 100 to 1000 | 100 to 1000 | < 100
2 | CCN(c1ccc(-c2ccc(-c3cn[nH]c3)c3cn[nH]c23)nn1)[C@@H]1C[C@H]2CC[C@@H](C1)N2 [Compound 300] | 100 to 1000 | 100 to 1000 | 100 to 1000 | 100 to 1000 | 100 to 1000 | 100 to 1000 | 1000 to 10000 | 100 to 1000 | 1000 to 10000 | 100 to 1000 | 100 to 1000
3 | CN(c1ccc(-c2ccc(-c3cn[nH]c3)c3cn[nH]c23)nn1)[C@H]1[C@@H]2CNC[C@@H]21 [Compound 301] | > 10000 | > 10000 | > 10000 | > 10000 | 1000 to 10000 | > 10000 | > 10000 | > 10000 | > 10000 | > 10000 | > 10000
4 | CN1C[C@@H]2[C@H](C1)[C@H]2N(C)c1ccc(-c2ccc(-c3cn[nH]c3)c3cn[nH]c23)nn1 [Compound 302] | > 10000 | > 10000 | > 10000 | > 10000 | 1000 to 10000 | > 10000 | > 10000 | > 10000 | > 10000 | > 10000 | > 10000
5 | CN(C)[C@H]1[C@@H]2CN(c3ccc(-c4ccc(-c5cn[nH]c5)c5cn[nH]c45)nn3)C[C@@H]21 [Compound 303] | 1000 to 10000 | > 10000 | > 10000 | > 10000 | 1000 to 10000 | > 10000 | > 10000 | > 10000 | > 10000 | 1000 to 10000 | 1000 to 10000
6 | c1n[nH]cc1-c1ccc(-c2ccc(N3CC[C@@]45CCN[C@@H]4CC[C@@H]35)nn2)c2[nH]ncc12 [Compound 304] | 1000 to 10000 | > 10000 | > 10000 | > 10000 | 1000 to 10000 | > 10000 | > 10000 | > 10000 | > 10000 | > 10000 | 1000 to 10000
7 | CC(C)(C)NC1CCN(c2ccc(-c3ccc(-c4cn[nH]c4)c4cn[nH]c34)nn2)C1 (stereo not shown) [Compound 305] | 100 to 1000 | 100 to 1000 | 100 to 1000 | 100 to 1000 | 100 to 1000 | 1000 to 10000 | 1000 to 10000 | 1000 to 10000 | 1000 to 10000 | 1000 to 10000 | < 100
8 | c1n[nH]cc1-c1ccc(-c2ccc(N3CCC(NC4CC4)C3)nn2)c2[nH]ncc12 (stereo not shown) [Compound 306] | 1000 to 10000 | > 10000 | 1000 to 10000 | > 10000 | 1000 to 10000 | > 10000 | > 10000 | > 10000 | > 10000 | > 10000 | 100 to 1000
9 | CC(C)(C)NC1CCN(c2ccc(-c3ccc(-n4cccn4)c4cn[nH]c34)nn2)C1 (stereo not shown) [Compound 310] | 1000 to 10000 | 1000 to 10000 | 1000 to 10000 | 1000 to 10000 | 1000 to 10000 | > 10000 | 1000 to 10000 | > 10000 | 1000 to 10000 | 1000 to 10000 | 100 to 1000
10 | CN(c1ccc(-c2ccc(-c3cnn(C4CC4)n3)c3cn[nH]c23)nn1)[C@@H]1C[C@H]2CC[C@@H](C1)N2 [Compound 312, (1R,3s,5S)-N-(6-(4-(2-cyclopropyl-2H-1,2,3-triazol-4-yl)-1H-indazol-7-yl)pyridazin-3-yl)-N-methyl-8-azabicyclo[3.2.1]octan-3-amine] | 100 to 1000 | 1000 to 10000 | 1000 to 10000 | 1000 to 10000 | 100 to 1000 | 1000 to 10000 | 1000 to 10000 | 100 to 1000 | 1000 to 10000 | 1000 to 10000 | 100 to 1000
11 | CN(c1ccc(-c2ccc(-c3cnn(C)n3)c3cn[nH]c23)nn1)C1CCNCC1 [Compound 315, N-methyl-6-[4-(2-methyl-1,2,3-triazol-4-yl)-1H-indazol-7-yl]-N-(piperidin-4-yl)pyridazin-3-amine] | 100 to 1000 | 1000 to 10000 | 1000 to 10000 | 1000 to 10000 | 100 to 1000 | > 10000 | 1000 to 10000 | 1000 to 10000 | 1000 to 10000 | > 10000 | 100 to 1000
12 | Cn1ncc(-c2ccc(-c3ccc(OC4CC(C)(C)NC(C)(C)C4)nn3)c3[nH]ncc23)n1 [Compound 316] | 100 to 1000 | 100 to 1000 | 100 to 1000 | 100 to 1000 | 100 to 1000 | 1000 to 10000 | 100 to 1000 | 100 to 1000 | 100 to 1000 | 100 to 1000 | < 100
13 | CCn1ncc(-c2ccc(-c3ccc(N(C)[C@@H]4C[C@H]5CC[C@@H](C4)N5)nn3)c3[nH]ncc23)n1 [Compound 317, N-{6-[4-(2-ethyl-1,2,3-triazol-4-yl)-1H-indazol-7-yl]pyridazin-3-yl}-N-methyl-8-azabicyclo[3.2.1]octan-3-amine] | 100 to 1000 | 100 to 1000 | 100 to 1000 | 100 to 1000 | 100 to 1000 | 1000 to 10000 | 100 to 1000 | 100 to 1000 | 100 to 1000 | 100 to 1000 | 1000 to 10000
14 | CN(c1ccc(-c2ccc(-c3cnn(CC4CC4)n3)c3cn[nH]c23)nn1)[C@@H]1C[C@H]2CC[C@@H](C1)N2 [Compound 318, N-(6-{4-[2-(cyclopropylmethyl)-1,2,3-triazol-4-yl]-1H-indazol-7-yl}pyridazin-3-yl)-N-methyl-8-azabicyclo[3.2.1]octan-3-amine] | 1000 to 10000 | 1000 to 10000 | 1000 to 10000 | 1000 to 10000 | 1000 to 10000 | 1000 to 10000 | 1000 to 10000 | 1000 to 10000 | 1000 to 10000 | 1000 to 10000 | 1000 to 10000
